Source: ChEMBL document CHEMBL1649425, “A-CD estrogens. I. Substituent effects, hormone potency, and receptor subtype selectivity in a new family of flexible estrogenic compounds” (J Med Chem, 2011)

Key:
Homo sapiens [1] = species on record: Homo sapiens; experiment: Selectivity ratio of relative binding affinity for human ERbeta to relative binding affinity for human ERalpha
[2] = target: T1, Estrogen receptor (Homo sapiens) (UniProt P03372); experiment: Activity at human ERalpha expressed in HEK293 cells assessed as relative transcription activation by estrogen response element-lucifease assay relative to estradiol; assay type: cell-based; design: concentration or dose not given beside the values
T1 sequence (whole entry): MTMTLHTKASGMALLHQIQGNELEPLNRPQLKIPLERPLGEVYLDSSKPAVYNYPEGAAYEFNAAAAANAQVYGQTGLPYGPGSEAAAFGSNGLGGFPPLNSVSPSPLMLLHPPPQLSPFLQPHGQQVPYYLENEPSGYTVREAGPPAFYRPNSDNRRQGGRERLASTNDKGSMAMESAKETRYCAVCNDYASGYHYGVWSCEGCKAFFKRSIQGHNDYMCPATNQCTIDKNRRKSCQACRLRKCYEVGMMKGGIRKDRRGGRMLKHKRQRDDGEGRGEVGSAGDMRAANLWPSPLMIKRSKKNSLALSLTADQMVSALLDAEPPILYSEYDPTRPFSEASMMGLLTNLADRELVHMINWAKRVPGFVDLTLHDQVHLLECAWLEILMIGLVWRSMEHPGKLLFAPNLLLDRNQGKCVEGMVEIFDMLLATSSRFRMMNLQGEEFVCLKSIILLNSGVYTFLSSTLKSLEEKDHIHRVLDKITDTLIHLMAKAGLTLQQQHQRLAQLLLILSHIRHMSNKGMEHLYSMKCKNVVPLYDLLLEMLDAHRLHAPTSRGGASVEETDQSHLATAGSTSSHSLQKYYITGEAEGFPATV

[3] = target: Estrogen receptor beta (Homo sapiens) (UniProt Q92731); experiment: Activity at human ERbeta expressed in HEK293 cells assessed as relative transcription activation by estrogen response element-lucifease assay relative to estradiol; assay type: cell-based; design: concentration or dose not given beside the values
Homo sapiens [4] = species on record: Homo sapiens; experiment: Selectivity ratio of relative transcription activation for human ERbeta to relative transcription activation for human ERalpha
[5] = Hepatotoxicity in Sprague-Dawley rat hepatocyte after 2 hrs; assay type: toxicity, cell-based; conditions: hepatocytes, read-out: LC50

Chain of Estrogen receptor beta (Homo sapiens) (Q92731 whole entry): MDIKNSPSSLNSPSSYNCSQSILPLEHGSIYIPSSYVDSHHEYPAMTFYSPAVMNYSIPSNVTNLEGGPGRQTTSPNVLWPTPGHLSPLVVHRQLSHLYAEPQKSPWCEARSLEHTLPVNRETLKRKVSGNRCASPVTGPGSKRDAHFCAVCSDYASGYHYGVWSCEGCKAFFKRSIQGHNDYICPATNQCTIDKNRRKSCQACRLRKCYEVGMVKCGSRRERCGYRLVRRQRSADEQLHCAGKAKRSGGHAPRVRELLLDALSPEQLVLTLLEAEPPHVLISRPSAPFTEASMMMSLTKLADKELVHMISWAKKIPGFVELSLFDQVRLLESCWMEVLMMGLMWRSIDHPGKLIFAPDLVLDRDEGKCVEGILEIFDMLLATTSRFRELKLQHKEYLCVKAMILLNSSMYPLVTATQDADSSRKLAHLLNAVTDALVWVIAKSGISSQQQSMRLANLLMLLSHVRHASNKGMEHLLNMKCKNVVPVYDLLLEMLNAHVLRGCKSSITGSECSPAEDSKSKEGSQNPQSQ

Ratio (Homo sapiens [1]) | Activity [2] [%] | Activity [3] [%] | Compound | Ratio (Homo sapiens [4]) | CC50 at 2 h [5] [µM]
0.5 | 0 | 0 | C[C@]12CC[C@H](c3cc(Cl)c(O)c(Cl)c3)C[C@H]1CC[C@@H]2O | – | –
11.9 | -9.7 | 49.2 | Cc1cc(O)ccc1[C@H]1CC[C@@]2(C)[C@H](CC[C@@H]2O)C1 | – | –
1.3 | -16.9 | 35.9 | C#C[C@]1(O)CC[C@@H]2C[C@@H](c3ccc(O)cc3)CC[C@@]21C | – | –
1.7 | 98.6 | 127 | C[C@]12CCC(c3ccc(O)cc3Cl)=C[C@H]1CC[C@@H]2O | 1.3 | –
8.3 | -9 | 196 | C[C@]12CC[C@H](c3ccc(O)c(F)c3)C[C@H]1CC[C@@H]2O | – | –
1 | – | – | Cc1c(O)ccc([C@H]2CC[C@@]3(C)[C@H](CC[C@@H]3O)C2)c1F | – | –
14 | – | – | C[C@]12CC[C@H](c3ccc(O)cc3)C[C@H]1CCC2=O | – | –
2.8 | – | – | Cc1c(O)ccc([C@H]2CC[C@@]3(C)[C@H](CC[C@@H]3O)C2)c1C | – | –
– | 90 | 189 | C[C@]12CC[C@H](c3ccc(O)cc3Cl)C[C@H]1CC[C@@H]2O | – | –
8.7 | – | – | C[C@]12CC[C@H](c3cc(F)c(O)cc3F)C[C@H]1CC[C@@H]2O | – | –
2.3 | 115 | 117 | C[C@]12CC=C(c3ccc(O)cc3Cl)C[C@H]1CC[C@@H]2O | 1 | –
– | – | – | C[C@]12CC[C@@H](c3ccc(O)cc3)C[C@H]1CC[C@@H]2O | – | 300
6.9 | – | – | C[C@]12CC[C@H](c3cc(F)c(O)c(F)c3)C[C@H]1CC[C@@H]2O | – | –
– | – | – | C[C@]12CC[C@@H]3c4ccc(O)cc4CC[C@H]3[C@@H]1CC[C@@H]2O [ESTRADIOL] | – | 400

Compound | Ratio (Homo sapiens [1]) | Activity [2] [%] | Activity [3] [%] | Ratio (Homo sapiens [4]) | CC50 at 2 h [5] [µM]
C[C@]12CC[C@H](c3ccc(O)cc3)C[C@H]1CC[C@@H]2O | 14.6 | 4.2 | 164 | 39 | 320
C[C@]12CC[C@H](c3cc(F)c(O)c(F)c3F)C[C@H]1CC[C@@H]2O | 9.3 | 12.8 | 95.4 | 7.9 | > 600
C[C@]12CC[C@H](c3ccc(O)cc3F)C[C@H]1CC[C@@H]2O | 5 | 44.3 | 158 | 3.6 | 250
C[C@]12CC[C@H](c3ccc(O)c(F)c3F)C[C@H]1CC[C@@H]2O | 9.3 | 18.3 | 151 | 8.3 | 155
